# From patent US9580449B2, “Compositions and methods for the production of pyrimidine and pyridine compounds with BTK inhibitory activity” (Merck Patent GmbH, priority 2011, dated 2017)
# pIC50: −log10 of the molar value.
# Biological target: full-length human BTK (Homo sapiens (Human), UniProt Q06187)
# Test: BTK IC50 enzyme assay (microfluidic off-chip mobility shift kinase assay)
# Assay type: biochemical
# Details: incubated for 90 min. at 27 C; read-out: Time Dependent BTK Enzyme Assay IC50
# Protocol: The following describes a microfluidic, off-chip mobility shift kinase assay used to measure inherent potency of compounds against BTK enzyme. Compounds described by embodiments of the present invention were assayed using this protocol and the data from the same is recorded in Table 2 within the column labeled: “Time Dependent BTK Enzyme Assay IC50”.
# Stopped reactions were monitored at −2 PSI, −3000 V/−700 V in a LabChip 3000 plate reader from Caliper Life Sciences, a PerkinElmer Company (Hopkinton, Mass.), and the activity was measured by off-chip mobility shift assay measuring the charge/mass difference between substrate and product resulting from peptide phosphorylation. IC50 and efficacy were determined by plotting log [Inhibitor] vs. % Activity in GeneData Screener (Basel, Switzerland). […] I<1 uM and II>1 uM.
# Chain of full-length human BTK (Q06187 whole entry): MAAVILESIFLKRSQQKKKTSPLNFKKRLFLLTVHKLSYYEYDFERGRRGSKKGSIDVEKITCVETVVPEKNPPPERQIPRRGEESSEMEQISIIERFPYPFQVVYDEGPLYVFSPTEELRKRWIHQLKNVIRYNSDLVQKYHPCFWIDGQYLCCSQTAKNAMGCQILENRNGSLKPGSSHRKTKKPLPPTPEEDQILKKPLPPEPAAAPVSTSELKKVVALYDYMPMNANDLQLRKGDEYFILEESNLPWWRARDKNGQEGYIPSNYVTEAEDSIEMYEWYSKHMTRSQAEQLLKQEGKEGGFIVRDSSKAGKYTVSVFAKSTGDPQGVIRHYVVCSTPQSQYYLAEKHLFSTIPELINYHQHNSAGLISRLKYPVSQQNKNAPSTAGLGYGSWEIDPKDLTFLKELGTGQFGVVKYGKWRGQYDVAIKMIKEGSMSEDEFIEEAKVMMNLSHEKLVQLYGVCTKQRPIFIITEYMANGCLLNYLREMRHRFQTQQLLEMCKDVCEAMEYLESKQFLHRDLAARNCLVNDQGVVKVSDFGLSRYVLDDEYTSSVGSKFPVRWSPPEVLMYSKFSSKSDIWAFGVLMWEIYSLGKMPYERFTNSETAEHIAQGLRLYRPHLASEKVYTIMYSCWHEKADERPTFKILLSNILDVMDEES
row,Compound,pIC50
1,"C=CC(=O)NC1CC(CNc2ncnc(N)c2-c2ccc(Oc3ccccc3)cc2)C1 (stereo not drawn) [A182, N-(3-(((6-amino-5-(4-phenoxyphenyl)pyrimidin-4-yl)amino)methyl)cyclobutyl)acrylamide]",> 7.00
2,"C=CC(=O)Nc1cccc(Oc2ncnc(N)c2-c2ccc(OCc3cccc(F)c3)cc2)c1 [A260, N-(3-((6-amino-5-(4-((3-fluorobenzyl)oxy)phenyl)pyrimidin-4-yl)oxy)phenyl)acrylamide]",> 7.00
3,"C=CC(=O)N1CCO[C@H](COc2ncnc(N)c2-c2ccc(Oc3ccccc3)cc2)C1 [A65, (S)-1-(2-(((6-amino-5-(4-phenoxyphenyl)pyrimidin-4-yl)oxy)methyl)morpholino)prop-2-en-1-one]",> 7.00
4,"C=CC(=O)NC1CCCN(c2ncnc(N)c2-c2ccc(Oc3ccccc3)cc2)C1 (stereo not drawn) [A298, N-(1-(6-amino-5-(4-phenoxyphenyl)pyrimidin-4-yl)piperidin-3-yl)acrylamide]",< 6.00
5,C=CC(=O)N1CCC(CNc2ncnc(N)c2-c2ccc(Oc3ccc(C)cc3)cc2)CC1 [A98],> 7.00
6,"C=CC(=O)Nc1cccc(Oc2ncnc(N)c2-c2cnn(Cc3cccc(C#N)c3)c2)c1 [A203, N-(3-((6-amino-5-(1-(3-cyanobenzyl)-1H-pyrazol-4-yl)pyrimidin-4-yl)oxy)phenyl)acrylamide]",> 7.00
7,"C=CC(=O)N1CCC(CN(C)c2ncnc(N)c2-c2ccc(Oc3ccccc3)cc2)CC1 [A47, 1-(4-(((6-amino-5-(4-phenoxyphenyl)pyrimidin-4-yl)(methyl)amino)methyl)piperidin-1-yl)prop-2-en-1-one]",> 6.00
8,"Nc1ccc(Oc2ncnc(N)c2-c2ccc(Oc3ccccc3)cc2)cc1 [A303, 6-(4-aminophenoxy)-5-(4-phenoxyphenyl)pyrimidin-4-amine]",< 6.00
9,"Nc1ncnc(NCC2CCN(C(=O)/C=C/CN3CCCC3)CC2)c1-c1ccc(Oc2ccccc2)cc1 [A220, (E)-1-(4-(((6-amino-5-(4-phenoxyphenyl)pyrimidin-4-yl)amino)methyl)piperidin-1-yl)-4-(pyrrolidin-1-yl)but-2-en-1-one]",> 6.00
10,"CCC(=O)Nc1cccc(-c2c(N)ncnc2Oc2ccc(Oc3ccccc3)cc2)c1 [A325, N-(3-(4-amino-6-(4-phenoxyphenoxy)pyrimidin-5-yl)phenyl)propionamide]",< 6.00
11,"C#CC(=O)N1CC[C@H](CNc2ncnc(N)c2-c2ccc(Oc3ccccc3)cc2)C1 [A61, (R)-1-(3-(((6-amino-5-(4-phenoxyphenyl)pyrimidin-4-yl)amino)methyl)pyrrolidin-1-yl)prop-2-yn-1-one]",> 7.00
12,"C=CC(=O)N1CCC(CCNc2ncnc(N)c2-c2ccc(Oc3ccccc3)cc2)CC1 [A16, 1-(4-(2-((6-amino-5-(4-phenoxyphenyl)pyrimidin-4-yl)amino)ethyl)piperidin-1-yl)prop-2-en-1-one]",< 6.00
13,"C=CC(=O)N1CC2(CC(Oc3ncnc(N)c3-c3ccc(Oc4cccnc4)cc3)C2)C1 [A221, 1-(6-((6-amino-5-(4-(pyridin-3-yloxy)phenyl)pyrimidin-4-yl)oxy)-2-azaspiro[3.3]heptan-2-yl)prop-2-en-1-one]",< 6.00
14,"C=CC(=O)N1CCC(Nc2ncnc(N)c2-c2ccc(Oc3ccccc3)cc2)CC1 [A299, 1-(4-((6-amino-5-(4-phenoxyphenyl)pyrimidin-4-yl)amino)piperidin-1-yl)prop-2-en-1-one]",< 6.00
15,"C=CC(=O)N1CCC(CNc2ncnc(N)c2-c2cnn(Cc3ccccc3)c2)CC1 [A33, 1-(4-(((6-amino-5-(1-benzyl-1H-pyrazol-4-yl)pyrimidin-4-yl)amino)methyl)piperidin-1-yl)prop-2-en-1-one]",< 6.00
16,"C=CC(=O)N1CCC(CNc2ncnc(N)c2-c2ccc(C(=O)Nc3ccccc3)cc2)CC1 [A157, 4-(4-(((1-acryloylpiperidin-4-yl)methyl)amino)-6-aminopyrimidin-5-yl)-N-phenylbenzamide]",< 6.00
17,"C=CC(=O)Nc1cccc(Oc2ncnc(N)c2-c2ccc(OCc3ccccc3)cc2)c1 [A249, N-(3-((6-amino-5-(4-(benzyloxy)phenyl)pyrimidin-4-yl)oxy)phenyl)acrylamide]",> 7.00
18,"C/C=C/C(=O)NCc1cccc(-c2cnccc2Oc2ccc(Oc3ccccc3)cc2)c1 [A327, (E)-N-(3-(4-(4-phenoxyphenoxy)pyridin-3-yl)benzyl)but-2-enamide]",< 6.00
19,"C=C(C)C(=O)Nc1cccc(-c2cnccc2Oc2ccc(Oc3ccccc3)cc2)c1 [A322, N-(3-(4-(4-phenoxyphenoxy)pyridin-3-yl)phenyl)methacrylamide]",< 6.00
20,"C=CC(=O)N1CC2(CC(Nc3ncnc(N)c3-c3ccc(Oc4ccc(C#N)cc4)cc3)C2)C1 [A207, 4-(4-(4-((2-acryloyl-2-azaspiro[3.3]heptan-6-yl)amino)-6-aminopyrimidin-5-yl)phenoxy)benzonitrile]",> 6.00

row,Compound,pIC50
1,"C=CC(=O)Nc1cccc(Oc2ncnc(N)c2-c2cnn(Cc3cccc(C(=O)OC)c3)c2)c1 [A206, methyl 3-((4-(4-(3-acrylamidophenoxy)-6-aminopyrimidin-5-yl)-1H-pyrazol-1-yl)methyl)benzoate]",> 7.00
2,"Nc1ncnc(Oc2cccc(NC(=O)CCl)c2)c1-c1ccc(OCc2ccccc2)cc1 [A347, N-{3-[6-Amino-5-(4-benzyloxy-phenyl)-pyrimidin-4-yloxy]-phenyl}-2-chloro-acetamide]",> 7.00
3,"C=CC(=O)N1CCC2(CCC2Nc2ncnc(N)c2-c2ccc(Oc3ccccc3)cc2)CC1 (stereo not drawn) [A123, 1-(1-((6-amino-5-(4-phenoxyphenyl)pyrimidin-4-yl)amino)-7-azaspiro[3.5]nonan-7-yl)prop-2-en-1-one]",< 6.00
4,"CCC(=O)Nc1cccc(-c2c(Oc3ccc(Oc4ccccc4)cc3)ccnc2N)c1 [A310, N-(3-(2-amino-4-(4-phenoxyphenoxy)pyridin-3-yl)phenyl)propionamide]",< 6.00
5,"C=CC(=O)N1CCC2(CCN(c3ncnc(N)c3-c3ccc(Oc4ccccc4)cc3)C2)C1 (stereo not drawn) [A93, 1-(7-(6-amino-5-(4-phenoxyphenyl)pyrimidin-4-yl)-2,7-diazaspiro[4.4]nonan-2-yl)prop-2-en-1-one]",> 6.00
6,"C=CC(=O)NCCCCNc1ncnc(N)c1-c1ccc(Oc2ccccc2)cc1 [A50, N-(4-((6-amino-5-(4-phenoxyphenyl)pyrimidin-4-yl)amino)butyl)acrylamide]",> 6.00
7,"C=CC(=O)N1CCO[C@@H](COc2ncnc(N)c2-c2ccc(Oc3ccccc3)cc2)C1 [A66, (R)-1-(2-(((6-amino-5-(4-phenoxyphenyl)pyrimidin-4-yl)oxy)methyl)morpholino)prop-2-en-1-one]",> 7.00
8,"C=CC(=O)N1CC=C(c2c(N)ncnc2Oc2ccc(Oc3ccccc3)cc2)CC1 [A263, 1-(4-(4-amino-6-(4-phenoxyphenoxy)pyrimidin-5-yl)-5,6-dihydropyridin-1(2H)-yl)prop-2-en-1-one]",> 6.00
9,"CN(C)C/C=C/C(=O)N1CCC[C@@H](Nc2ncnc(N)c2-c2ccc(Oc3ccccc3)cc2)C1 [A74, (R,E)-1-(3-((6-amino-5-(4-phenoxyphenyl)pyrimidin-4-yl)amino)piperidin-1-yl)-4-(dimethylamino)but-2-en-1-one]",> 6.00
10,"C=CC(=O)N1CC[C@@H](CNc2ncnc(N)c2-c2ccc(Oc3ccc(C#N)cc3)cc2)[C@H](O)C1 (racemic) [A199, 4-(4-(4-((((3S,4S)-1-acryloyl-3-hydroxypiperidin-4-yl)methyl)amino)-6-aminopyrimidin-5-yl)phenoxy)benzonitrile]",> 6.00
11,"NCc1ccc(-c2cnccc2Oc2ccc(Oc3ccccc3)cc2)cc1 [A315, (4-(4-(4-phenoxyphenoxy)pyridin-3-yl)phenyl)methanamine]",< 6.00
12,"C=CC(=O)N1CCC(CNc2ncnc(N)c2-c2ccc(Oc3cccc(C(F)(F)F)c3)cc2)CC1 [A95, 1-(4-(((6-amino-5-(4-(3-(trifluoromethyl)phenoxy)phenyl)pyrimidin-4-yl)amino)methyl)piperidin-1-yl)prop-2-en-1-one]",> 7.00
13,"Nc1ncnc(Oc2cccc(NC(=O)CCl)c2)c1-c1ccc(OCc2cccc(F)c2)cc1 [A345, N-(3-{6-Amino-5-[4-(3-fluoro-benzyloxy)-phenyl]-pyrimidin-4-yloxy}-phenyl)-2-chloro-acetamide]",> 7.00
14,"C=CC(=O)N1CCC(CNc2ncnc(N)c2-c2ccc(Oc3ccc(O)cc3)cc2)CC1 [A94, 1-(4-(((6-amino-5-(4-(4-hydroxyphenoxy)phenyl)pyrimidin-4-yl)amino)methyl)piperidin-1-yl)prop-2-en-1-one]",< 6.00
15,"Nc1ncnc(NCC2(F)CCN(C(=O)CCN3CCCCC3)CC2)c1-c1ccc(Oc2ccccc2)cc1 [A235, 1-(4-(((6-amino-5-(4-phenoxyphenyl)pyrimidin-4-yl)amino)methyl)-4-fluoropiperidin-1-yl)-3-(piperidin-1-yl)propan-1-one]",< 6.00
16,"C=CC(=O)Nc1cccc(Oc2ncnc(N)c2-c2ccc(OCc3ccc(OC)cc3)cc2)c1 [A264, N-(3-((6-amino-5-(4-((4-methoxybenzyl)oxy)phenyl)pyrimidin-4-yl)oxy)phenyl)acrylamide]",> 7.00
17,"C=CC(=O)Nc1cccc(-c2c(N)ncnc2Nc2ccc(Oc3ccccc3)cc2)c1 [A241, N-(3-(4-amino-6-((4-phenoxyphenyl)amino)pyrimidin-5-yl)phenyl)acrylamide]",> 7.00
18,C=CC(=O)N[C@H]1CC[C@@H](Nc2ncnc(N)c2-c2ccc(OCc3ccccc3)cc2)CC1 [A154],< 6.00
19,"C=CC(=O)N1CCC(CNc2nc(C)nc(N)c2-c2ccc(Oc3ccccc3)cc2)CC1 [A36, 1-(4-(((6-amino-2-methyl-5-(4-phenoxyphenyl)pyrimidin-4-yl)amino)methyl)piperidin-1-yl)prop-2-en-1-one]",< 6.00
